Assay results as given in patent publication US8470755B1, “Liquid cleaning and disinfecting compositions comprising a zinc inorganic salt” (The Procter & Gamble Company, priority 2012, dated 2013).

What was measured:
Type in all cases: cell-based
[1] = tested on: Escherichia Coli (EC) CIP 53.126; experiment: ASTM E2149 shake flask method, antibacterial log reduction, E. coli; conditions: log(T0/T1h), 1 hour
Protocol: (§1) The antibacterial efficacy was tested following the below Shake Flask protocol:
(§2) • Microbial strains: Staphylococcus aureus (SA) CIP 4.83, Escherichia Coli (EC) CIP 53.126, Pseudomonas Aeruginosa (PA) CIP 82.113 • Culture media: TSA medium-Neutralizing medium (Dey Engley Broth)-Buffered Peptoned water (BPW-F)-Shake flask bottles-Physiological water • Incubator Shake Flask Protocol: ASTM E2149 Shake Flask Method • Inoculum counting: • For each strain, prepare an inoculum at 0.5 Mc Farland (McF). Dilute 1 ml of the inoculum with 9 ml of physiological water. Select 1 ml of the resulting dilution and dilute again with 9 ml of physiological water. Execute 5 dilution steps accordingly so that a 10^−5 dilution is obtained. • Recover 100 microliter of the 10^−5 dilution and inoculate 2 petri dishes. • Add 20 ml of TSA medium. • Incubate at 32+/−0.5° C. during 24 hours • Negative control: • Put 5 ml of SA, EC or PA inoculums into a shake flask. Add 45 ml of pure BPW-F solution. • Dilute twice in neutralizing medium: Recover 1 ml of the pure solution and add 9 ml of the neutralizing medium (=10^−1 and 10^−2 dilution). • Wait 5 minutes and put 100 microliter of the pure solution and the 10^−2 dilution into 2 petri dishes, add 20 ml of TSA medium (T0). • Do the same operation after 1 hour (T1h). • Incubate at 32+/−0.5° C. during 24 hours • Sample testing: • Prepare a solution at a specified concentration (see data tables for actual concentrations as 100% active—final volume 50 ml). For example, for a 50% (V/V), dilute 25 ml of product with 20 ml of BPW-F and 5 ml of the inoculums (SA, EC or PA) at 0.5 McF. • Dilute twice in neutralizing medium: Recover 1 ml of the pure solution and add 9 ml of the neutralizing medium (=10^−1 and 10^−2 dilution). • Wait 5 minutes and put 100 microliter of the pure solution and the 10^−2 dilution into 2 petri dishes, add 20 ml of TSA medium (T0). • Do the same operation after 1 hour (T1h). • Incubate at 32+/−0.5° C. during 24 hours • Calculation of log reduction: • The log reduction is calculated as log(T0/T1h)

[2] = tested on: Staphylococcus aureus (SA) CIP 4.83; experiment: ASTM E2149 shake flask method, antibacterial log reduction, St. aureus; conditions: log(T0/T1h), 1 hour
Protocol: as §1, §2

[3] = tested on: Pseudomonas Aeruginosa (PA) CIP 82.113; experiment: ASTM E2149 shake flask method, antibacterial log reduction, Ps. aeruginosa; conditions: Ps Aeroginosa; tested active concentration 10%; log(T0/T1h), 1 hour
Protocol: as §1, §2

[4] = tested active concentration 0.1%
[5] = St. Aureus, tested active concentration 0.1%

CCCCCCCCCCCC(=O)NCCC[N+](C)(C)[O-] [CAP AO, cocoamidopropyl dimethyl amine oxide]
Log reduction (tested active concentration) ([1]; tested active concentration 1%): 0.37 (1%)
Log reduction (tested active concentration) ([2]; St Aureus, tested active concentration 1%): 0.88 (1%)
Log reduction (tested active concentration) [3]: 1.3 (10%)

O=C([O-])[O-].[Zn+2] [Zn2+, zinc carbonate]
Log reduction (tested active concentration) [1, 4]: 0.17 (0.1%)
Log reduction (tested active concentration) [2, 5]: 0.18 (0.1%)
Log reduction (tested active concentration) [3]: 0.27 (10%)

methyl branched dimethyl amine oxide [Shell type 1 Branched AO ( N terminal)]
Log reduction (tested active concentration) [2, 5]: 4.06 (0.1%)
Log reduction (tested active concentration) [3]: 3.98 (10%)

linear C12-14 alkyl dimethyl amine oxide [Linear AO]
Log reduction (tested active concentration) [1, 4]: 0.41 (0.1%)
Log reduction (tested active concentration) [2, 5]: 0.73 (0.1%)
Log reduction (tested active concentration) [3]: 2.10 (10%)
